In US20250262336A1, “[177LU] LUTETIUM-PSMA I&T COMPOSITION AND DOSIMETRY, KIT, METHOD OF MAKING, AND METHOD OF USING THEREOF” (Curium US LLC, priority 2023, published 2025):

Test: Cycle 3 biodistribution and dosimetry (SPECT/CT, single or multiple time points)
Format: in vivo, human
Procedure: (§1) To evaluate potential changes in the tracer's kinetics and uptake after multiple treatment cycles, 16 of the 27 patients included in the dosimetry sub study, were imaged at both cycle 1 and cycle 3. Among these, at cycle 3, three patients were imaged at all 4 timepoints and the other 13 were imaged at one or two timepoints only (24 h, 48 h or both 24 h and 48 h) (Table 2). For these 13 patients, the TACs obtained at cycle 1 were used for each source organ and scaled to the normalized activity value(s) measured at Cycle 3. For patients imaged at two timepoints, the TACs were preferably scaled using the average scaling factor between the two timepoints.
A subgroup of 16 out of the 27 patients underwent and additional dosimetry assessment at Cycle 3. Among these, three patients had dosimetry performed based on images taken at 4 timepoints, while the remaining patients had dosimetry performed at 1 or 2 imaging timepoints only.
as §1, with “7 in Appendix 1).” for “2).”
A subgroup of 16 out of the 27 patients underwent and additional dosimetry assessment at Cycle 3. Among these, three patients had dosimetry performed based on images taken at 4 timepoints, while the remaining patients had dosimetry performed at 1 or 2 imaging timepoints only, as described in Section 4.4.1.

[1] = Lacrimal Glands (OLINDA sphere model), N = 16

Structure (SMILES): O=C(O)CC[C@H](NC(=O)N[C@@H](CCCCNC(=O)CCCCCCC(=O)NCCCC[C@@H](NC(=O)[C@@H](Cc1ccccc1)NC(=O)[C@@H](Cc1ccc(O)c(I)c1)NC(=O)CC[C@H](C(=O)O)N1CCN(CC(=O)O)CCN(CC(=O)O)CCN(CC(=O)O)CC1)C(=O)O)C(=O)O)C(=O)O [^177Lu-PSMA-I&T, (3S,7 S,26R,29R,32R,37R)-29-benzyl-32-(4-hydroxy-3-iodobenzyl)-5,13,20,28,31,34-hexaoxo-37-(4,7,10-tris(carboxymethyl)-1,4,7,10-tetraazacyclododecan-1-yl)-4,6,12,21,27,30,33-heptaazaheptatriacontane-1,3,7,26,37-pentacarboxylic acid; lutetium-177 (III), metal not drawn]
- Absorbed Dose in Cycle 3, Mean (Adrenals, N = 16): 0.02 Gy/GBq
- Absorbed Dose in Cycle 3, max (Adrenals, N = 16): 0.03 Gy/GBq
- Absorbed Dose in Cycle 3, min (Adrenals, N = 16): 0.01 Gy/GBq
- Absorbed Dose in Cycle 3, Mean (Brain, N = 16): 0.01 Gy/GBq
- Absorbed Dose in Cycle 3, max (Brain, N = 16): 0.02 Gy/GBq
- Absorbed Dose in Cycle 3, min (Brain, N = 16): 0.00 Gy/GBq
- Absorbed Dose in Cycle 3, Mean (Esophagus, N = 16): 0.01 Gy/GBq
- Absorbed Dose in Cycle 3, max (Esophagus, N = 16): 0.02 Gy/GBq
- Absorbed Dose in Cycle 3, min (Esophagus, N = 16): 0.00 Gy/GBq
- Absorbed Dose in Cycle 3, Mean (Eyes, N = 16): 0.01 Gy/GBq
- Absorbed Dose in Cycle 3, max (Eyes, N = 16): 0.02 Gy/GBq
- Absorbed Dose in Cycle 3, min (Eyes, N = 16): 0.00 Gy/GBq
- Absorbed Dose in Cycle 3, Mean (Gallbladder wall, N = 16): 0.01 Gy/GBq
- Absorbed Dose in Cycle 3, max (Gallbladder wall, N = 16): 0.02 Gy/GBq
- Absorbed Dose in Cycle 3, min (Gallbladder wall, N = 16): 0.00 Gy/GBq
- Absorbed Dose in Cycle 3, Mean (Heart wall, N = 16): 0.01 Gy/GBq
- Absorbed Dose in Cycle 3, max (Heart wall, N = 16): 0.02 Gy/GBq
- Absorbed Dose in Cycle 3, min (Heart wall, N = 16): 0.00 Gy/GBq
- Absorbed Dose in Cycle 3, Mean (Kidneys, N = 16): 0.49 Gy/GBq
- Absorbed Dose in Cycle 3, max (Kidneys, N = 16): 0.85 Gy/GBq
- Absorbed Dose in Cycle 3, min (Kidneys, N = 16): 0.19 Gy/GBq
- Absorbed Dose in Cycle 3, Mean [1]: 0.29 Gy/GBq
- Absorbed Dose in Cycle 3, max [1]: 0.73 Gy/GBq
- Absorbed Dose in Cycle 3, min [1]: 0.10 Gy/GBq
- Absorbed Dose in Cycle 3, Mean (Left colon, N = 16): 0.41 Gy/GBq
- Absorbed Dose in Cycle 3, max (Left colon, N = 16): 0.94 Gy/GBq
- Absorbed Dose in Cycle 3, min (Left colon, N = 16): 0.07 Gy/GBq
- Absorbed Dose in Cycle 3, Mean (Liver, N = 16): 0.06 Gy/GBq
- Absorbed Dose in Cycle 3, max (Liver, N = 16): 0.15 Gy/GBq
- Absorbed Dose in Cycle 3, min (Liver, N = 16): 0.00 Gy/GBq
- Absorbed Dose in Cycle 3, Mean (Lungs, N = 16): 0.01 Gy/GBq
- Absorbed Dose in Cycle 3, max (Lungs, N = 16): 0.02 Gy/GBq
- Absorbed Dose in Cycle 3, min (Lungs, N = 16): 0.00 Gy/GBq
- Absorbed Dose in Cycle 3, Mean (Osteogenic cells, N = 16): 0.02 Gy/GBq
- Absorbed Dose in Cycle 3, max (Osteogenic cells, N = 16): 0.09 Gy/GBq
- Absorbed Dose in Cycle 3, min (Osteogenic cells, N = 16): 0.00 Gy/GBq
- Absorbed Dose in Cycle 3, Mean (Pancreas, N = 16): 0.01 Gy/GBq
- Absorbed Dose in Cycle 3, max (Pancreas, N = 16): 0.02 Gy/GBq
- Absorbed Dose in Cycle 3, min (Pancreas, N = 16): 0.00 Gy/GBq
- Absorbed Dose in Cycle 3, Mean (Prostate, N = 16): 0.01 Gy/GBq
- Absorbed Dose in Cycle 3, max (Prostate, N = 16): 0.02 Gy/GBq
- Absorbed Dose in Cycle 3, min (Prostate, N = 16): 0.01 Gy/GBq
- Absorbed Dose in Cycle 3, Mean (Rectum, N = 16): 0.39 Gy/GBq
- Absorbed Dose in Cycle 3, max (Rectum, N = 16): 0.90 Gy/GBq
- Absorbed Dose in Cycle 3, min (Rectum, N = 16): 0.06 Gy/GBq
- Absorbed Dose in Cycle 3, Mean (Red Marrow, N = 16): 0.03 Gy/GBq
- Absorbed Dose in Cycle 3, max (Red Marrow, N = 16): 0.17 Gy/GBq
- Absorbed Dose in Cycle 3, min (Red Marrow, N = 16): 0.00 Gy/GBq
- Absorbed Dose in Cycle 3, Mean (Right Colon, N = 16): 0.22 Gy/GBq
- Absorbed Dose in Cycle 3, max (Right Colon, N = 16): 0.51 Gy/GBq
- Absorbed Dose in Cycle 3, min (Right Colon, N = 16): 0.04 Gy/GBq
- Absorbed Dose in Cycle 3, Mean (Salivary Glands, N = 16): 0.20 Gy/GBq
- Absorbed Dose in Cycle 3, max (Salivary Glands, N = 16): 0.69 Gy/GBq
- Absorbed Dose in Cycle 3, min (Salivary Glands, N = 16): 0.04 Gy/GBq
- Absorbed Dose in Cycle 3, Mean (Small intestine, N = 16): 0.04 Gy/GBq
- Absorbed Dose in Cycle 3, max (Small intestine, N = 16): 0.10 Gy/GBq
- Absorbed Dose in Cycle 3, min (Small intestine, N = 16): 0.01 Gy/GBq
- Absorbed Dose in Cycle 3, Mean (Spleen, N = 16): 0.03 Gy/GBq
- Absorbed Dose in Cycle 3, max (Spleen, N = 16): 0.12 Gy/GBq
- Absorbed Dose in Cycle 3, min (Spleen, N = 16): 0.01 Gy/GBq
- Absorbed Dose in Cycle 3, Mean (Stomach Wall, N = 16): 0.01 Gy/GBq
- Absorbed Dose in Cycle 3, max (Stomach Wall, N = 16): 0.02 Gy/GBq
- Absorbed Dose in Cycle 3, min (Stomach Wall, N = 16): 0.00 Gy/GBq
- Absorbed Dose in Cycle 3, Mean (Testes, N = 16): 0.01 Gy/GBq
- Absorbed Dose in Cycle 3, max (Testes, N = 16): 0.02 Gy/GBq
- Absorbed Dose in Cycle 3, min (Testes, N = 16): 0.00 Gy/GBq
- Absorbed Dose in Cycle 3, Mean (Thymus, N = 16): 0.01 Gy/GBq
- Absorbed Dose in Cycle 3, max (Thymus, N = 16): 0.02 Gy/GBq
- Absorbed Dose in Cycle 3, min (Thymus, N = 16): 0.00 Gy/GBq
- Absorbed Dose in Cycle 3, Mean (Thyroid, N = 16): 0.01 Gy/GBq
- Absorbed Dose in Cycle 3, max (Thyroid, N = 16): 0.02 Gy/GBq
- Absorbed Dose in Cycle 3, min (Thyroid, N = 16): 0.00 Gy/GBq
- Absorbed Dose in Cycle 3, Mean (Total Body, N = 16): 0.02 Gy/GBq
- Absorbed Dose in Cycle 3, max (Total Body, N = 16): 0.03 Gy/GBq
- Absorbed Dose in Cycle 3, min (Total Body, N = 16): 0.01 Gy/GBq
- Absorbed Dose in Cycle 3, Mean (Urinary Bladder wall, N = 16): 0.45 Gy/GBq
- Absorbed Dose in Cycle 3, max (Urinary Bladder wall, N = 16): 0.70 Gy/GBq
- Absorbed Dose in Cycle 3, min (Urinary Bladder wall, N = 16): 0.36 Gy/GBq
- organ absorbed radiation dose, kidneys (cycle 3, 16 patients imaged at cycle 1 and 3): 0.49±0.19 Gy/GBq
- Absorbed Dose in Cycle 3, Mean (in vivo): 0.29 Gy/GBq
- Absorbed Dose in Cycle 3, max (in vivo): 0.73 Gy/GBq
- Absorbed Dose in Cycle 3, min (in vivo): 0.10 Gy/GBq
